# Assay results taken from US20260240842A1, “METHODS TO PREVENT THERAPY RESISTANCE IN MELANOMA VIA BLOCKING GENOMIC INSTABILITY” (THE REGENTS OF THE UNIVERSITY OF CALIFORNIA, priority 2022, published 2026).
# System: HSR harboring BRAF in M249 cells
# Assay: Metaphase DNA-FISH tracking emergence of BRAF HSR
# Type: cell-based, human
# Conditions: M249, day 31; DNA-PKi and/or PARPi given in combination with BRAFi+MEKi; FIG. 5G
# From the text: FIGS. 5A-5H. Resistance-driver ecDNAs and HSRs dynamically track with resistance and DNA-PKi prevents size-expansion of ecDNAs and CGRs early on MAPKi treatment. FIGS. 5A to 5C, Metaphase DNA-FISH of paired parental and acquired resistant BRAF^V600MUT (5A and 5B) or NRAS^Q61MUT (5C) cell lines without or with drug withdrawal showing ecDNA- or HSR-amplicons harboring BRAF, RAF1 or NRAS. Left, representative images; right, quantifications per cell. Ruler, 15 μm. P values (Unpaired two-tailed Student's t-test): *, p<0.05; **, p<0.01; ***, p<0.001. FIGS. 5D to 5F: Three- (upper) and six-(lower) day MTT assay of indicated cell lines treated with graded concentrations of BRAFi+MEKi (5D and 5E) or MEKi (5F). Cell viability was normalized to respective DMSO/vehicle group. Inner brackets, comparisons between acquired-resistant sub-lines without and with drug withdrawal. Outer brackets, comparisons between acquired-resistant sub-lines and their isogenic parental cell lines. […] FIG. 5G: Representative images (left) and quantification (right) of metaphase DNA-FISH showing HSR harboring BRAF in M249 cells treated with vehicle or BRAFi+MEKi, with or without NU7026 and/or ABT888 for 31 days. […] FIG. 5H: Average total genomic spans of treatment-specific ecDNAs+CGRs in M229 and M245 cell lines (background ecDNA+CGR spans detected in vehicle-treated cells were filtered). […]
row,SMILES,BRAF HSRs early on treatment
1,"C[C@]1(c2nc3c(C(N)=O)cccc3[nH]2)CCCN1 [ABT888, veliparib]",suppression
2,O=c1cc(N2CCOCC2)oc2c1ccc1ccccc12 [NU7026],suppression
